The IC50 is the point on the concentration scale where inhibition reaches its midpoint.

In data set [1] the target is T1, CYP1A2 (Homo sapiens, UniProt P05177).
T1 construct: incubated with human liver microsomes; from tissue; host or cells: human liver microsomes
Nature of the data set: biochemical. The data set is classed as in vitro ADME.

A short description of data set [2]: In vitro metabolic stability / metabolite screening, statements over all species. Conditions: 100 μM. Format: in vitro ADME, rat, dog, monkey, human. As to the method:
[^14C]EC-18 or the positive control (7-ethoxycoumarin; 7-EC) reacted with microsomes prepared from hepatocytes of rats, dogs, monkeys, and humans, with or without cofactors, for 60 and 120 min. Then, the residual EC-18 concentration over time was measured by LC-RID ([^14C]EC-18) or LC-MS/MS (7-EC) (FIG. 63 and FIG. 64).
The LC-RID chromatographic profiles of radioactive metabolites produced in the 2-hr incubation reaction mixtures of the same test systems A, B, and C used to assess the metabolic and non-metabolic elimination rates of EC-18 were compared to the LC-UV chromatographic profiles of the synthetic reference material. […] The relative radioactivity of EC-18 accounted for 42-67% of total radioactivity. The peaks designated as M2, M3, and M5 were also determined in all species, and their relative radioactivity accounted for 12-34% of total radioactivity. The peaks of M4 and M6 were determined in monkeys and humans. M1 was abundantly detected in all species, but it was assumed to be a peak of early elution. The LC-UV chromatograms of reaction mixtures in each test system (FIGS. 65A-65C) and the relative radioactivity of the screened metabolites are shown in Table 25.

Data set [3] in a line: In vitro plasma stability, rat plasma. Format: in vitro ADME. The following applies: Rats; 1 μM; 37° C.; n=3. As to the method: (§1) To assess the stability of EC-18 in plasma, the test material, or the standard reference material (test concentration 1 μM) was mixed with rat and human plasma and allowed to react for 1 hr at 37° C. Then, the residual EC-18 concentration was measured by LC-MS/MS. As standard reference materials, albendazole (a drug with high plasma stability) and vinpocetine (a drug with low plasma stability) were tested in parallel. When allowed to react with rat and human plasma for 1 hr, the residual EC-18 concentration in both rat and human plasma was >99% of the initial dose.

A short description of data set [4]: In vitro plasma stability, human plasma. Conditions: Humans; 1 μM; 37° C.; n=3. Format: in vitro ADME. The procedure: as §1
For data set [5], the system named is CXCL8. Nature of the data set: CXCL8 release in HaCaT cells treated with CM or rhHMGB1. Format: cell-based, human. Conditions: rhHMGB1-treated cells. As to the method: An additional experiment was tested for assessing whether EC-18 treatment leads to early termination of the RIPK1/3-MLKL-mediated downstream necroptosis pathway. This was performed by using DAMP-containing conditioned media (CM) harvested from HaCaT cells, irradiated for 48 hrs, and analyzed after 2 or 72 hrs of EC-18 treatment. […] To further confirm that DAMPs in CM contribute to the activation of a necroptosis signaling pathway in a paracrine manner, recombinant human HMGB1 (rhHMGB1) was treated directly to the normal HaCaT cells. The rhHMGB1 elevated the phosphorylation of RIPK1/3 and MLKL after 2 hrs and subsequently released HMGB1 and HSP90 (FIGS. 35C-35D). To evaluate whether EC-18 mitigates the activation of RIPK1/3 and MLKL, 10 or 100 μg/mL of EC-18 was treated before the addition of CM or rhHMGB1. As a result, EC-18 lowered the phosphorylation of RIPK/3 and MLKL in both CM- and rhHMGB1-treated cells after 2 hrs. Release of HMGB1 and Hsp90 was also subsided by EC-18 after 72 hrs of post addition of CM or rhHMGB1 to the cells (FIGS. 35A-35D). TLR4-induced necroptosis signaling pathway caused by DAMP release produces cytokines, such as CXCL8, a chemotactic cytokine for neutrophils. As CXCL8 increases upon tissue damage, it was measured in cells treated with CM or rhHMGB1 as a measure of inflammation. CXCL8 of CM from cells treated with chemo and radiotherapy was used for this evaluation. […] Moreover, rhHMGB1 increased the production of CXCL8, modulated by EC-18.

In data set [6] the target is CYP2C19 (Homo sapiens, UniProt P33261). The data set can be described thus: CYP enzyme inhibition in human liver microsomes, CYP2C19. An excerpt:
(§2) CYP1A2, CYP2C9, CYP2C19, CYP2D6, and CYP3A4 are the CYP subfamily, which plays a critical role in the metabolism of most drugs.
Background: Liver microsomes are vesicles of endoplasmic reticulum, rich in cytochrome P450 enzymes.

Data set [7] deals with CYP1A2. Format: in vitro ADME, human. Conditions: Positive Control, 50 μM; n=3.
Data set [8] has as its target CYP2D6 (Homo sapiens, UniProt P10635). Nature of the data set: CYP enzyme inhibition in human liver microsomes, CYP2D6.
From the text: as §2

Some results are limits rather than exact numbers.

Chain of CYP2D6 (P10635 whole entry): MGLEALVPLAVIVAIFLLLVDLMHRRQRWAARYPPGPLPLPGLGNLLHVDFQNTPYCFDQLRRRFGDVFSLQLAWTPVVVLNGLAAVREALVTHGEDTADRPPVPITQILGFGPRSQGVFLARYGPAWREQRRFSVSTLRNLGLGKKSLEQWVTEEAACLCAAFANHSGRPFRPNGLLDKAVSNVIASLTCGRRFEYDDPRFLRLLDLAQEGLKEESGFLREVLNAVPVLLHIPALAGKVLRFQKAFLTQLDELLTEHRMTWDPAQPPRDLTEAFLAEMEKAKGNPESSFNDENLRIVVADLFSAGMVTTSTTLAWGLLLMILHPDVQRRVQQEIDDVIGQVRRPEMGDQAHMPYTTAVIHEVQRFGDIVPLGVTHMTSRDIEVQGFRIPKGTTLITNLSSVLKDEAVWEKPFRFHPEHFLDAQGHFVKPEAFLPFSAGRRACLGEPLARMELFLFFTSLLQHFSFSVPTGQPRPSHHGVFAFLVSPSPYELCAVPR
Chain of CYP2C19 (P33261 whole entry): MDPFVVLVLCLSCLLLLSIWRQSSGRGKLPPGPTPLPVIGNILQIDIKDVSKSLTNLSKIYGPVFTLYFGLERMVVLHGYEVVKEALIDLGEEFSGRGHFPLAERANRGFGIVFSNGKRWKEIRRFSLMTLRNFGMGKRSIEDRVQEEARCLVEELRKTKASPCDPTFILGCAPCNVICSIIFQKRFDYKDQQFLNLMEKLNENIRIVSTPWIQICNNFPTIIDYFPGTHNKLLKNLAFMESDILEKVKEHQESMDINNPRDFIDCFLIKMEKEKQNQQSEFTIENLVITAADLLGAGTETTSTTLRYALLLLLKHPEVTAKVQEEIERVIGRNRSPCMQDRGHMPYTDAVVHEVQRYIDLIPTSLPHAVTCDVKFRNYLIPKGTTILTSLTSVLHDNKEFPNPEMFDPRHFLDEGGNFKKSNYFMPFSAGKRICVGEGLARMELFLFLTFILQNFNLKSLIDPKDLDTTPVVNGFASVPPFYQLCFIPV
T1 sequence (P05177 whole entry): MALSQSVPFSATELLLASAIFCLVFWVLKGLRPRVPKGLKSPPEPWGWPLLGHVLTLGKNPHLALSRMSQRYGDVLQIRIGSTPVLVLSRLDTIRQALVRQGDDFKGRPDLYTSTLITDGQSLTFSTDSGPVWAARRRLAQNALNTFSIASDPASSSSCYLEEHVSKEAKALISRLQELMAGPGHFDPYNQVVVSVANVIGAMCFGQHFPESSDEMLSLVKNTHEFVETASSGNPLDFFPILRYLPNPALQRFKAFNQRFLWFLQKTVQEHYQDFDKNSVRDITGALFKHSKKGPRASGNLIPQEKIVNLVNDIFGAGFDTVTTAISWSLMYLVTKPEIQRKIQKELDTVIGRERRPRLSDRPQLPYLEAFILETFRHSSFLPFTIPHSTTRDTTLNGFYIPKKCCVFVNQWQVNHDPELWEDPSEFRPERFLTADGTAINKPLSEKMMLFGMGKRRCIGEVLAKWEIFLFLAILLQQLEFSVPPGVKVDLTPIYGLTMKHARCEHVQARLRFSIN

`CCOc1ccc2ccc(=O)oc2c1` [7-EC, 7-ethoxycoumarin, reference compound] returned a half-inhibitory concentration (IC50) in data set [1] of 1700 nM. Besides, the “share of initial concentration eliminated” value in data set [2] (1 hr, test systems A and B, rats, dogs, monkeys, humans) is ≥ 99%. Besides, the “share of initial concentration retained” value in data set [2] (2 hrs, test system C) is on record as ≥ 92%. On to `CCCSc1ccc2nc(NC(=O)OC)[nH]c2c1` [Albendazol, albendazole, reference compound], for which the “Residual Concentration Relative to the Initial Dose After Reaction for 1 hr in Plasma” value in data set [3] and in data set [4] was >99% in each case. As to `CC(C)S(=O)(=O)c1ccc2nccc(Nc3ccc4scnc4c3)c2c1` [GSK872, reference compound], the CXCL8 production entry in data set [5] is “significant reduction”. For `CN1C(=O)C(Cc2c[nH]c3ccccc23)NC1=S` (stereo not drawn) [Necrostin-1, reference compound], the CXCL8 production entry in data set [5] is “significant reduction”.

For the molecule `CCOC(=O)C1=C[C@]2(CC)CCCN3CCc4c(n1c1ccccc41)[C@@H]32` [Vinpocetin, vinpocetine, reference compound], the “Residual Concentration Relative to the Initial Dose After Reaction for 1 hr in Plasma” value in data set [3] is 52.4 ± 7.2%; in data set [4], 85.3 ± 3.8%. `COc1ccc2[nH]c([S+]([O-])Cc3ncc(C)c(OC)c3C)nc2c1` (stereo not drawn) [omeprazole, reference compound] returned a half-maximal inhibitory concentration (IC50) in data set [6] of 6 µM. Also, in data set [7], the “Enzyme Activity CYP1A2” value was 6.56 ± 2.86 pmol/106 Cells/Min.

In turn, `CC(CN1c2ccccc2Sc2ccccc21)N(C)C` (stereo not drawn) [promethazine, reference compound] came in with a 50% inhibitory concentration (IC50) in data set [8] of 67.9 µM.

These data come from patent publication US12076307B2, “Compositions for prevention or treatment of acute radiation syndrome and other radiation exposure” (priority 2017, dated 2024).
